Experimental data reported in EP0032708A1, “Tryptophan derivative, process for preparing same and a pharmaceutical composition containing such derivative” (Tanabe Seiyaku Co., Ltd., priority 1980, dated 1981).

Assays:
male SD rats = experiment: Hypolipidemic activity (test compound in diet of rats for one week; serum lipids and liver weight); assay type: in vivo; conditions: test compound 0.10 w/w % in diet for one week
Method: (i) Hypolipidemic activity:
A test compound (0.10 w/w %) was added to a commercial diet, and male SD rats (body weight: 120 - 140 g , a group of 6 rats) were maintained on the diet for one week. After the experimental period, blood was collected from the tail vein of the rats under ether anesthesia. Thereafter, the liver was excised and weighed. Serum cholesterol and serum triglyceride were measured according to the methods of Zak (Amer. J. Clin. Pathol., Vol. 24, page 1307 (1954)) and Van Handel Zilversmit (J. Lab. & Clin. Med., Vol. 50, page 152 (1957)), respectively. Then, the increase (%) in liver weight and the decrease (%) in serum cholesterol or triglyceride were calculated according to the following formulae: [formula] [formula]

rat brain homogenate = experiment: Preventive effect on lipid peroxide formation (thiobarbituric acid colorimetric method); assay type: biochemical; conditions: 10 % rat brain homogenate, pH 7.4, 30-minute incubation at 37°C
Method: (ii) Preventive effect on lipid peroxide formation: An ethanol solution containing 10^-3 or 10-^4 M of a test compound was added to a mixture of 2.4 ml of 0.067 M potassium phosphate buffer solution (pH 7.4) and 0.5 ml of 10 % rat brain homogenate to adjust the final volume of the mixture to 3 ml. After 30-minute incubation of the mixture at 37°C, one ml of 20 % trichloroacetic acid was added thereto, and lipid peroxide formation was determined by the thiobarbituric acid colorimetric method (J. Robak et al., Viochem. Pharmacol., Vol. 25, page 2233 (1976). Suppression (%) of lipid peroxide formation of the test compound was calculated according to the following formula: [formula] • Note: ^* : group containing the test compound ^** : group containing an equal volume of ethanol instead of the test compound solution ΔOD was calculated as [(optical density measured at 532 nm) - (optical density measured at 600 nm)]

Compound | Decrease (%) in serum triglyceride (male SD rats) [%] | Decrease (%) in serume cholesterol (male SD rats) [%] | Increase (%) in liver weight (male SD rats) [%] | Suppression (%) in lipid peroxide formation (rat brain homogenate; Dose 10^-3M, 1000 µM) [%] | Suppression (%) in lipid peroxide formation (rat brain homogenate; Dose 10^-4M, 100 µM) [%]
CCOC(=O)C(C)(C)Oc1ccc(Cl)cc1 [Clofibrate, 2-(4-chlorophenoxy)-2-methylpropanoic acid ethyl ester, reference compound] | 34 | 26 | 14 | 24.3 | 0.5
Cn1cc(C[C@H](NC(=O)SCc2ccccc2)C(=O)O)c2ccccc21 [N^1-methyl-Hα-benzylthiocarbonyl-L-tryptophan] | 30 | 15 | 5 | 65.2 | 9.0
Cc1ccc(CSC(=O)N[C@@H](Cc2c[nH]c3ccccc23)C(=O)O)cc1 [Nα-(4-methylbenzylthiocarbonyl)-L-tryptophan] | 48 | 14 | 0 | 72.7 | 10.2
